# Assay results reported in patent publication US9422285B2, “Substituted pyrazolo[1,5-A]-pyridine-3-carboxamides and use thereof” (Bayer Pharma Aktiengesellschaft, priority 2014, dated 2016).
# Where a name gives a salt, the structure may show the parent alone.
# Target: T1, recombinant guanylate cyclase reporter cell line (Rattus norvegicus, UniProt P19686+P20595)
# T1 construct: expressed in transfected cells
# T1 sequence (P19686 1-690): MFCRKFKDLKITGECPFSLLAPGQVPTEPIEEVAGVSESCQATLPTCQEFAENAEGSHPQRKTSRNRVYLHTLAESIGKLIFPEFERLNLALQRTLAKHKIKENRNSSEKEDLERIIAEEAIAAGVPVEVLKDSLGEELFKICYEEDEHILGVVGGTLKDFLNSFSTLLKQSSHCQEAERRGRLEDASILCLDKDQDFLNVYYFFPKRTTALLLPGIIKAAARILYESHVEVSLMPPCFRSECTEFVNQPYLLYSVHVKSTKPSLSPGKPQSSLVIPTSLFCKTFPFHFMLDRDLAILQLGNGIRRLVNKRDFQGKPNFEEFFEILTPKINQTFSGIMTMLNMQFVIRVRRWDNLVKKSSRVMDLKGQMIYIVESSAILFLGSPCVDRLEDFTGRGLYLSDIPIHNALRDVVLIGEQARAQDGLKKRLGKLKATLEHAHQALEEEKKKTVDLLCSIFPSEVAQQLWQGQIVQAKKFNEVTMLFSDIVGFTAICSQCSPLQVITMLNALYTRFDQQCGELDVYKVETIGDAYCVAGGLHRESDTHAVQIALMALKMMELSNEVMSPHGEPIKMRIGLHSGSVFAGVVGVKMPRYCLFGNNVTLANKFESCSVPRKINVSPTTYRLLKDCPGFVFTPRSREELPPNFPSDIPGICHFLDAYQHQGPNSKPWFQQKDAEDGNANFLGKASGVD
# T1 sequence (P20595 1-619): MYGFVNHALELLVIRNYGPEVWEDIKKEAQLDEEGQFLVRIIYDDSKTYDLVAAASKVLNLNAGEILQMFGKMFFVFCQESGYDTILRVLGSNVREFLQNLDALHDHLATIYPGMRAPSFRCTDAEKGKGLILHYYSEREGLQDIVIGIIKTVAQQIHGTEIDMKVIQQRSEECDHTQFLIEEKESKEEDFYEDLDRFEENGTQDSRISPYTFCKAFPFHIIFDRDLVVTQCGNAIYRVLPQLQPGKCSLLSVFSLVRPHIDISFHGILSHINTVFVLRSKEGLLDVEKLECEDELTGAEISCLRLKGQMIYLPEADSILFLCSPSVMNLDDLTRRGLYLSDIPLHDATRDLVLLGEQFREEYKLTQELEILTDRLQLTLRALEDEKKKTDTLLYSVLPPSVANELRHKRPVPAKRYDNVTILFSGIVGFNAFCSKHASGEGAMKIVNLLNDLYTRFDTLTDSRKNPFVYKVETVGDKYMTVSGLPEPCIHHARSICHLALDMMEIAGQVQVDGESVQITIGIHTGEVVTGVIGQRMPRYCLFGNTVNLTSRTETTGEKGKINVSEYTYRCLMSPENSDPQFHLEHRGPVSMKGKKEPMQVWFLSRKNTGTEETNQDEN
# Test: Effect on a recombinant guanylate cyclase reporter cell line (B-2)
# Assay type: cell-based
# Settings: in some cases mean values for individual determinations
# Method: B-2. Effect on a Recombinant Guanylate Cyclase Reporter Cell Line
# The cellular effect of the inventive compounds is determined using a recombinant guanylate cyclase reporter cell line, as described in F. Wunder et al., Anal. Biochem. 339, 104-112 (2005).
# Representative MEC values (MEC=minimum effective concentration) for the inventive compounds are shown in the table below (in some cases as mean values for individual determinations): […]
row,SMILES,MEC (minimum effective concentration) [µM]
1,"CCC(CO)(CO)NC(=O)c1c(C)nn2c(OCc3c(F)ccc(F)c3F)cc(C)cc12 [Example 28, N-[1-Hydroxy-2-(hydroxymethyl)butan-2-yl]-2,5-dimethyl-7-[(2,3,6-trifluorobenzyl)oxy]pyrazolo[1,5-a]pyridine-3-carboxamide]",1.0
2,"Cc1cc(OCc2c(F)cccc2F)n2nc(C)c(C(=O)NCC3CSCCN3)c2c1 (racemic) [Example 88, rac-7-[(2,6-Difluorobenzyl)oxy]-2,5-dimethyl-N-(thiomorpholin-3-ylmethyl)pyrazolo[1,5-a]pyridine-3-carboxamide]",1.0
3,"Cc1cc(OCc2c(F)cccc2F)n2nc(C)c(C(=O)NNC3CCCC3O)c2c1 (centres unmarked) [Example 68, 7-[(2,6-Difluorobenzyl)oxy]-N′-(2-hydroxycyclopentyl)-2,5-dimethylpyrazolo[1,5-a]pyridine-3-carbohydrazide trifluoroacetate]",10
4,"Cc1cc(OCc2c(F)cccc2F)n2nc(C)c(C(=O)NN3CCN(C)CC3)c2c1 [Example 173, 7-[(2,6-Difluorobenzyl)oxy]-2,5-dimethyl-N-(4-methylpiperazin-1-yl)pyrazolo[1,5-a]pyridine-3-carboxamide]",1.0
5,"CCCC(C)(N)CNC(=O)c1c(C)nn2c(OCC3CCCCC3)cc(C)cc12 (racemic) [Example 159, rac-N-(2-Amino-2-methylpentyl)-7-(cyclohexylmethoxy)-2,5-dimethylpyrazolo[1,5-a]pyridine-3-carboxamide]",3.0
6,"Cc1cc(OCc2c(F)cccc2F)n2nc(C)c(C(=O)NCC(=O)NC3CC3)c2c1 [Example 89, N-[2-(Cyclopropylamino)-2-oxoethyl]-7-[(2,6-difluorobenzyl)oxy]-2,5-dimethylpyrazolo[1,5-a]pyridine-3-carboxamide]",3.0
7,"COC(=O)C12CC3CC(CC(CNC(=O)c4c(C)nn5c(OCc6c(F)cccc6F)cc(C)cc45)(C3)C1)C2 [Example 155, Methyl 3-{[({7-[(2,6-difluorobenzyl)oxy]-2,5-dimethylpyrazolo[1,5-a]pyridin-3-yl}carbonyl)amino]methyl}adamantane-1-carboxylate]",1.0
8,"Cc1cc(OCc2c(F)cccc2F)n2nc(C)c(C(=O)NCC3(N)CCCCC3)c2c1 [Example 124, N-[(1-Aminocyclohexyl)methyl]-7-[(2,6-difluorobenzyl)oxy]-2,5-dimethylpyrazolo[1,5-a]pyridine-3-carboxamide]",0.3
9,"Cc1cc(OCc2c(F)cccc2F)n2nc(C)c(C(=O)N[C@H]3C[C@H]4CN(C)CCN4C3)c2c1 [Example 113, 7-[(2,6-Difluorobenzyl)oxy]-2,5-dimethyl-N-[(7S,8aS)-2-methyloctahydropyrrolo[1,2-a]pyrazin-7-yl]pyrazolo[1,5-a]pyridine-3-carboxamide]",3.0
10,"Cc1cc(OCc2c(F)cccc2F)n2nc(C)c(C(=O)NC3COc4ccccc43)c2c1 (racemic) [Example 108, rac-7-[(2,6-Difluorobenzyl)oxy]-N-(2,3-dihydro-1-benzofur-3-yl)-2,5-dimethylpyrazolo[1,5-a]pyridine-3-carboxamide]",0.3
11,"Cc1cc(OCc2c(F)ccc(F)c2F)n2nc(C)c(C(=O)NCCN(CC(F)F)C3CC3)c2c1 [Example 26, N-{2-[Cyclopropyl(2,2-difluoroethyl)amino]ethyl]-2,5-dimethyl-7-[(2,3,6-trifluorobenzyl)oxy]pyrazolo[1,5-a]pyridine-3-carboxamide]",0.3
12,"Cc1cc(OCc2c(F)cccc2F)n2nc(C)c(C(=O)NCC3CCc4ccccc4N3)c2c1 (racemic) [Example 82, rac-7-[(2,6-Difluorobenzyl)oxy]-2,5-dimethyl-N-(1,2,3,4-tetrahydroquinolin-2-ylmethyl)pyrazolo[1,5-a]pyridine-3-carboxamide]",1.0
13,"CCCC(C)(N)CNC(=O)c1c(C)nn2c(OCc3ncccc3F)cc(C)cc12 (racemic) [Example 166, rac-N-(2-Amino-2-methylpentyl)-7-[(3-fluoropyridin-2-yl)methoxy]-2,5-dimethylpyrazolo[1,5-a]pyridine-3-carboxamide]",10

# Other lines, results leading:
row,MEC (minimum effective concentration) [µM],SMILES
1,1.0,"Cc1cc(OCc2c(F)cccc2F)n2nc(C)c(C(=O)NC(CN)c3ccc4c(c3)OCO4)c2c1 (racemic) [Example 120, rac-N-[2-Amino-1-(1,3-benzodioxol-5-yl)ethyl]-7-[(2,6-difluorobenzyl)oxy]-2,5-dimethylpyrazolo[1,5-a]pyridine-3-carboxamide]"
2,10,"Cc1cc(OCc2c(F)cccc2F)n2nc(C)c(C(=O)NCC(N)c3csc4ccccc34)c2c1 (racemic) [Example 112, rac-N-[2-Amino-2-(1-benzothiophen-3-yl)ethyl]-7-[(2,6-difluorobenzyl)oxy]-2,5-dimethylpyrazolo[1,5-a]pyridine-3-carboxamide]"
3,0.3,"Cc1cc(OCc2c(F)cccc2F)n2nc(C3CC3)c(C(=O)NCC(C)(N)CC(F)F)c2c1 (single isomer, unassigned) [Example 57, ent-N-(2-Amino-4,4-difluoro-2-methylbutyl)-2-cyclopropyl-7-[(2,6-difluorobenzyl)oxy]-5-methylpyrazolo[1,5-a]pyridine-3-carboxamide]"
4,10,"CC(=O)NCCNC(=O)c1c(C)nn2c(OCc3c(F)cccc3F)cc(C)cc12 [Example 96, N-(2-Acetamidoethyl)-7-[(2,6-difluorobenzyl)oxy]-2,5-dimethylpyrazolo[1,5-a]pyridine-3-carboxamide]"
5,3.0,"Cc1cc(OCc2c(F)cccc2F)n2nc(C)c(C(=O)NCC(N)c3cccc(OC(F)F)c3)c2c1 (racemic) [Example 116, rac-N-{2-Amino-2-[3-(difluoromethoxy)phenyl]ethyl}-7-[(2,6-difluorobenzyl)oxy]-2,5-dimethylpyrazolo[1,5-a]pyridine-3-carboxamide]"
6,0.3,"CC=CCC(N)CNC(=O)c1c(C)nn2c(OCc3c(F)cccc3F)cc(C)cc12 (racemic) [Example 115, rac-N-[2-Aminohex-4-en-1-yl]-7-[(2,6-difluorobenzyl)oxy]-2,5-dimethylpyrazolo[1,5-a]pyridine-3-carboxamide]"
7,1.0,"CCCC(C)(N)CNC(=O)c1c(C)nn2c(OCc3c(F)cccc3F)cc(OC)cc12 (racemic) [Example 171, rac-N-(2-Amino-2-methylpentyl)-7-[(2,6-difluorobenzyl)oxy]-5-methoxy-2-methylpyrazolo[1,5-a]pyridine-3-carboxamide]"
8,3.0,"Cc1cc(OCc2c(F)cccc2F)n2nc(C)c(C(=O)NCC(C)(N)COc3ccc(F)c(F)c3)c2c1 (racemic) [Example 79, rac-N-[2-Amino-3-(3,4-difluorophenoxy)-2-methylpropyl]-7-[(2,6-difluorobenzyl)oxy]-2,5-dimethylpyrazolo[1,5-a]pyridine-3-carboxamide]"
9,10,"COC(=O)c1cccc(C(N)CNC(=O)c2c(C)nn3c(OCc4c(F)cccc4F)cc(C)cc23)c1 (racemic) [Example 114, rac-Methyl 3-{1-amino-2-[({7-[(2,6-difluorobenzyl)oxy]-2,5-dimethylpyrazolo[1,5-a]pyridin-3-yl}carbonyl)amino]ethyl}benzoate]"
10,0.1,"COc1ccc(CC(C)(N)CNC(=O)c2c(C)nn3c(OCc4c(F)cccc4F)cc(C)cc23)cc1 (racemic) [Example 99, rac-N-[2-Amino-3-(4-methoxyphenyl)-2-methylpropyl]-7-[(2,6-difluorobenzyl)oxy]-2,5-dimethylpyrazolo[1,5-a]pyridine-3-carboxamide]"
